Experimental data taken from patent US10392346B2, “Kinase inhibitors” (Topivert Pharma Limited, priority 2014, dated 2019).
Counter-ions that a name gives are not always drawn. Blank lines part the entries; values can stand above or below the compound they belong to.

Assays:
[1] = tested on: Jurkat cells; assay: Cell cytotoxicity assay (assay r); format: cell-based, human; conditions: 24 hours
Procedure: 1×10^5 Jurkat cells (immortalised human T lymphocytes) are added to the appropriate number of wells of a 96 well plate in 100 μL of media (RPMI supplemented with 10% foetal bovine serum). 1 μL of DMSO control (final concentration 1.0% v/v) or test compound (final concentration 20, 5 or 1 μg/mL) is added to the wells and incubated at 37° C., 5% CO2. After 24 hours, the plate is centrifuged at 1200 rpm for 3 minutes and the supernatant discarded. Cells are then resuspended in 150 μL (final concentration 7.5 μg/mL) of propidium iodide (PI) in PBS and incubated at 37° C., 5% CO2 for 15 minutes. After 15 minutes, cells are analysed by flow cytometry (BD accuri) using the FL3 window. The % viability is calculated as the % of cells that are PI negative in the test wells normalised to the DMSO control.

[2] = tested on: patients with severe Crohn's disease; conditions: over 8 weeks; cited from earlier work
[3] = tested on: non-mutant kinases; assay: KinomeScan selectivity scores; format: binding; conditions: for KinomeScan Selectivity Score S(10): kinases with % Ctrl <10 / kinases tested; for KinomeScan Selectivity Score S(1): kinases with % Ctrl <1 / kinases tested; for kinase selectivity compared to the Reference Compound: KINOMEscan selectivity scores
From the text: These assays may be conducted by DiscoverX (formerly Ambit; San Diego, Calif.).

[4] = Hydrolytic stability study; format: physicochemical; conditions: 1 mg/mL; for % Parent Remaining: DMSO/water (3:1)
Procedure: Chemical stability of compounds of the invention was assessed in a mixture of DMSO and water (3:1) at a test compound concentration of 1 mg/mL.
General HPLC Procedure • Agilent, Waters X-Select C18, 2.5 μm, 4.6×30 mm column, 4 min method, 5-95% MeCN/water (0.1% formic acid). Flow rate 2.5 mL/min. Column Oven Temperature 40° C. Detection 254 nm.
Sample Preparation • A 1.0 mg sample of test compound was dissolved in 750 μL of DMSO. Water (250 μL) was added slowly, ensuring no precipitation occurred.
Recording Stability • A 50 μL aliquot of the test solution was removed and analysed in duplicate by 5 μL HPLC injections. The peak area for the test compound was recorded following manual integration of the corresponding UV trace. • The test solution was heated to 60° C., with stirring, and 50 μL aliquots removed for HPLC analysis at 5 and 24 h timepoints.

[5] = tested on: Crohn's patients; conditions: transient, baseline by week 8; cited from earlier work
[6] = Stability of pharmaceutical formulations; format: physicochemical; conditions: for Purity (%) at week n = 4: 4 weeks
Procedure: The samples were sonicated to achieve clear solutions having the following properties: Osmolality (mOsm/kg): 310 (Na), 314 (HCl); pH: 7.00 (Na), 7.05 (HCl). 0.5 mL of the stock solutions were diluted to 1 mL with 20% DMSO in water & injected for purity analysis by HPLC. The remaining stock solutions were then split into aliquots of 0.5 mL in HPLC vials, and stored at various conditions in duplicate. Samples were stored at 5 and 25° C., before being analysed by HPLC at 1, 2 and 4 weeks. Separate samples were stored at 40° C. and analysed at 4 weeks.

[7] = tested on: Salmonella typhimurium, strains TA1535, TA1537, TA98 and TA100; assay: Bacterial reverse mutation screen (plate incorporation); conditions: for limit of solubility in the mutation test: all strains; for limit of solubility in the mutation test / mutagenic effects (revertant numbers): presence and absence of S-9 mix; for toxicity to the bacteria (mean colony count): at 500-5000 μg/plate in some strains
[8] = tested on: Escherichia coli, WP2 uvrA; assay: as above; conditions: for mutagenic effects (revertant numbers): presence and absence of S-9 mix
[9] = tested on: rheumatoid arthritis patients; conditions: cited from earlier work
[10] = tested on: LPS-stimulated rats; assay: Endotoxin-induced uveitis in rats (assay vi); format: in vivo, rat; conditions: rats treated with intravitreal endotoxin LPS
Procedure: Male, Lewis rats (6-8 weeks old, Charles River UK Limited) are housed in cages of 3 at 19-21° C. with a 12 h light/dark cycle (07:00/19:00) and fed a standard diet of rodent chow and water ad libitum. Non-fasted rats are weighed, individually identified on the tail with a permanent marker, and receive a single intravitreal administration into the right vitreous humor (5 μL dose volume) of 100 ng/animal of LPS (Escherichia coli 0111:B4 prepared in PBS, Sigma Aldrich, UK) using a 32-gauge needle. Untreated rats are injected with PBS. Test compound or vehicle (4% polyoxyl 40 stearate, 4% mannitol in PBS (pH 7.4)) are administered by the topical route onto the right eye (10 μL) of animals 1 hour prior to LPS, at the time of LPS administration, and 1, 2 and 4 hours post LPS administration. Before administration, the solution to be administered is sonicated to ensure a clear solution. 6 hours after LPS dosing, animals are euthanized by overdose with pentobarbitone (via cardiac puncture) Immediately after euthanasia, 10 μL of aqueous humor is collected from the right eye of the rats by puncture of the anterior chamber using a 32 gauge needle under a surgical microscope. The aqueous humor is diluted in 20 μL of PBS and total cell counts are measured immediately using a Countess automated cell counter (Invitrogen). […]

[11] = tested on: eyes of albino New Zealand White rabbits; conditions: Phase 1, one treatment day, 0.1 and 1.0 mg/mL
[12] = 60° C., 24 h timepoint (1429-1450 min)

Structure (SMILES): COc1cc(Nc2cc(Oc3ccc(NC(=O)Nc4cc(C(C)(C)C)cc(NS(C)(=O)=O)c4OC)c4ccccc34)ccn2)ccc1C(=O)NC[C@@H]1O[C@H](CO)[C@@H](O)[C@H](O)[C@H]1O [17(co), 4-((4-((4-(3-(5-(tert-Butyl)-2-methoxy-3-(methylsulfonamido)phenyl)ureido)naphthalen-1-yl)oxy)pyridin-2-yl)amino)-2-methoxy-N-(((2S,3R,4R,5S,6R)-3,4,5-trihydroxy-6-(hydroxymethyl)tetrahydro-2H-pyran-2-yl)methyl)benzamide]
% Viability at 1 μg/mL [1]: 74.3%

Structure (SMILES): C/C(=N\N=C(N)N)c1cc(NC(=O)CCCCCCCCC(=O)Nc2cc(/C(C)=N/N=C(N)N)cc(/C(C)=N/N=C(N)N)c2)cc(/C(C)=N/N=C(N)N)c1.Cl.Cl.Cl.Cl [CNI-1493]
clinical score [2]: significant improvement in clinical score

Structure (SMILES): COc1cc(Nc2cc(Oc3ccc(NC(=O)Nc4cc(C(C)(C)C)cc(NS(C)(=O)=O)c4OC)c4ccccc34)ccn2)cc(OC)c1C(=O)NCCOCCOCCOP(=O)(O)O [Example 47, 2-(2-(2-(4-((4-((4-(3-(5-(tert-butyl)-2-methoxy-3-(methylsulfonamido)phenyl)ureido)-naphthalen-1-yl)oxy)pyridin-2-yl)amino)-2,6-dimethoxybenzamido)ethoxy)ethoxy)ethyl dihydrogen phosphate]
KinomeScan Selectivity Score S(10) ([3]; 50 nM): 0.042
KinomeScan Selectivity Score S(1) ([3]; 500 nM): 0.074
kinase selectivity compared to the Reference Compound [3]: improved selectivities
% Parent Remaining [4, 12]: 89%
% Parent Remaining ([4]; time 0 min): 100%

Structure (SMILES): COc1cc(Nc2cc(Oc3ccc(NC(=O)Nc4cc(C(C)(C)C)cc(NS(C)(=O)=O)c4OC)c4ccccc34)ccn2)cc(OC)c1C(=O)NCCOCCOCCO [Example 36, 4-((4-((4-(3-(5-(tert-Butyl)-2-methoxy-3-(methylsulfonamido)phenyl)ureido)naphthalen-1-yl)oxy)pyridin-2-yl)amino)-N-(2-(2-(2-hydroxyethoxy)ethoxy)ethyl)-2,6-dimethoxybenzamide]
KinomeScan Selectivity Score S(1) ([3]; 50 nM): 0.002
KinomeScan Selectivity Score S(10) ([3]; 50 nM): 0.050
KinomeScan Selectivity Score S(1) ([3]; 500 nM): 0.079
kinase selectivity compared to the Reference Compound [3]: improved selectivities

decomposition (hydrolytic stability) ([4]; DMSO and water (3:1), 60° C., 5 and 24 h): underwent substantial decomposition
% Parent Remaining ([4]; 60° C., 5 h timepoint (297-317 min)): 79%
% Parent Remaining [4, 12]: 18%
% Parent Remaining ([4]; time 0 min): 100%
Structure (SMILES): C#Cc1cc(Nc2nccc(Oc3ccc(NC(=O)Nc4cc(C(C)C)nn4-c4ccc(C)cc4)c4ccccc34)n2)cc(C(=O)NCCN2CCOCC2)c1 [Reference Compound B, 3-ethynyl-5-((4-((4-(3-(3-isopropyl-1-(p-tolyl)-1H-pyrazol-5-yl)ureido)naphthalen-1-yl)oxy)pyrimidin-2-yl)amino)-N-(2-morpholinoethyl)benzamide, reference compound]

Structure (SMILES): Cc1ccc(-n2nc(C(C)(C)C)cc2NC(=O)Nc2ccc(OCCN3CCOCC3)c3ccccc23)cc1 [BIRB796]
clinical benefit (C-reactive protein levels) [5]: improvement in C-reactive protein levels

Structure (SMILES): COc1cc(Nc2cc(Oc3ccc(NC(=O)Nc4cc(C(C)(C)C)cc(NS(C)(=O)=O)c4OC)c4ccccc34)ccn2)ccc1C(=O)O [Example 1, sodium salt]
Purity (%) at week n = 4 ([6]; 1 mg/mL buffered solution stored at 40° C., duplicate samples): 76.0%

Structure (SMILES): COc1cc(Nc2cc(Oc3ccc(NC(=O)Nc4cc(C(C)(C)C)cc(NS(C)(=O)=O)c4OC)c4ccccc34)ccn2)ccc1P(C)(=O)O [Example 44, (4-((4-((4-(3-(5-(tert-Butyl)-2-methoxy-3-(methylsulfonamido)phenyl)ureido)naphthalen-1-yl)oxy)pyridin-2-yl)amino)-2-methoxyphenyl)(methyl)phosphinic acid]
% Parent Remaining [4, 12]: 98%
% Parent Remaining ([4]; time 0 min): 100%
limit of solubility in the mutation test [7]: 5000 μg/plate
toxicity to the bacteria (mean colony count) [7]: reduction in the mean colony count
mutagenic effects (revertant numbers) [7]: absence of any mutagenic effects
toxicity to the bacteria (mean colony count) ([8]; 5000 μg/plate, absence of S-9 mix): reduction in the mean colony count
mutagenic effects (revertant numbers) [8]: absence of any mutagenic effects

Structure (SMILES): COc1cc(Nc2ncc(F)c(Nc3ccc4c(n3)N(COP(=O)(O)O)C(=O)C(C)(C)O4)n2)cc(OC)c1OC [Fostamatinib]
clinical outcome and serum IL-6 and MMP-3 [9]: improved clinical outcome and reduced serum levels of IL-6 and MMP-3

Structure (SMILES): COc1cc(Nc2cc(Oc3ccc(NC(=O)Nc4cc(C(C)(C)C)cc(NS(C)(=O)=O)c4OC)c4ccccc34)ccn2)ccc1C(=O)O [Example 1, 4-((4-((4-(3-(5-(tert-Butyl)-2-methoxy-3-(methylsulfonamido)phenyl)ureido)naphthalen-1-yl)oxy)pyridin-2-yl)amino)-2-methoxybenzoic acid]
cellular infiltration (cell counts) in the eyes [10]: significantly and dose-dependently reduced
cytokine IL-1β levels in anterior and posterior segments of the eyes [10]: significantly and dose-dependently reduced
stability in solution ([6]; 1 mg/mL Na and HCl salts, 10 mM pH 7.2 phosphate buffer, 4.5% mannitol, 3% polyoxyl 40 stearate, 5° C., up to 4 weeks): stable
ocular reactions versus vehicle controls [11]: no differences in the frequency, severity and incidence
limit of solubility in the mutation test [7]: 1500 μg/plate
toxicity to the bacteria (mean colony count) [7]: reduction in the mean colony count
mutagenic effects (revertant numbers) [7]: absence of any mutagenic effects
mutagenic effects (revertant numbers) [8]: absence of any mutagenic effects

Structure (SMILES): COc1cc(Nc2cc(Oc3ccc(NC(=O)Nc4cc(C(C)(C)C)cc(NS(C)(=O)=O)c4OC)c4ccccc34)ccn2)ccc1C(=O)O.Cl [Example 1, hydrochloride salt, 4-((4-((4-(3-(5-(tert-butyl)-2-methoxy-3-(methylsulfonamido)phenyl)ureido)naphthalen-1-yl)oxy)pyridin-2-yl)amino)-2-methoxybenzoic acid, hydrochloride salt]
Purity (%) at week n = 2 ([6]; 1 mg/mL buffered solution stored at 5° C., 2 weeks, duplicate samples, hydrochloride salt): 98.0%
Purity (%) at week n = 4 ([6]; 1 mg/mL buffered solution stored at 5° C., duplicate samples, hydrochloride salt): 98.0%
Purity (%) at week n = 1 ([6]; 1 mg/mL buffered solution stored at 25° C., 1 week, duplicate samples): 98.0%
